Measured values taken from PubChem BioAssay AID2060901 (Molecular Pharmacology Branch, DTP, NCI, 2025).

Tested on: 422866-222-R5-J1-PDC complex spheroids viability
Assay: Anticancer human tumor 422866-222-R5-J1-PDC patient-derived pancreatic adenocarcinoma cell line growth inhibition [RAS]
Conditions: for IC50: curve of first compound; for viability, T/C: stronger effect = lower value
Text: RAS pathway inhibitors in Combinations in Complex Spheroids
A high-throughput screen of multi-cell type tumor spheroids was designed to identify active combinations of RAS pathway inhibitors and targeted small molecules. Complex spheroids include a stromal component modeled by human endothelial cells (HUVEC) and fibroblasts modeled by human mesenchymal stem cells (MSCs). The concentration ranges selected for each drug and investigational agent were based upon clinically achievable concentrations if the clinical Cmax of the agent was known.
Compounds. The drugs and investigational agents: abemaciclib (NSC768073), cobimetinib (NSC768068), divarasib (GDC6063, NSC841802), docetaxel (NSC628503), GDC-1971 (RLY-1971, NSC841576), gemcitabine (NSC613327), inavolisib (NSC800729), ipatasertib (NSC767898), KB-0742 (NSC834161), MRTX-1133 (NSC836407), osimertinib (NSC779217), RMC-4630 (NSC839698), RMC-6236 (NSC851965), RMC-6291 (NSC852671), Ro-3306 (NSC812927), sapanisertib (NSC764658), SN-38 (NSC673596), staurosporine (NSC755774), SY5609 (NSC837396), and tovorafenib (DAY101, NSC766906), were obtained from the National Cancer Institute (NCI) Developmental Therapeutics Program Chemical Repository. The FDA-approved anticancer drug set is available from the NCI Developmental Therapeutics Program. […] The stock solutions were prepared in dimethyl sulfoxide (DMSO, Sigma-Aldrich, St. Louis, MO, cat. D2650) at 800-fold the tested concentration and stored at -70 degrees C prior to their use. All drugs and investigational agents were tested over a range starting from a high concentration at or near the clinical Cmax and decreasing in half-log increments. If the clinical Cmax for an agent had not been determined, the highest concentration tested was 10 microM.
Cell Culture. All cells were maintained in an incubator at 37 degrees C and 5% CO2 with 95% humidity. The PDC lines were cultured according to standard operating procedures established by the NCI PDMR. All PDCs were thawed and cultured in Matrigel-coated flasks prepared with a working solution of 1X Ham's F-12 nutrient mix, without supplementation (Invitrogen, Waltham, MA, cat. 11765054), 100 U/mL penicillin-streptomycin (Invitrogen, cat. 15140122), and 2.5% Matrigel (Corning Inc., Corning, NY, cat. 354248) for the first three passages. The 362531-283-R-J2-PDC and 782815-120-R-J1-PDC lines were cultured in 6C/Colon 1B media, which includes advanced DMEM/F-12 (Thermo Fisher Scientific, cat. 12634028), 10 mM HEPES (Thermo Fisher Scientific, cat. 15630080), 1X GlutaMAX supplement (Thermo Fisher Scientific, cat. 35050061), 0.1 mg/mL primocin (InvivoGen, San Diego, CA, cat. ant-pm-2), 10% defined fetal bovine serum, heat inactivated (HyClone Laboratories Inc., Logan, UT, cat. SH30070.03HI), 50% L-WRN conditioned media (ATCC, cat. CRL-3276), 1.25 mM N-Acetyl-L-cysteine (Sigma-Aldrich, cat. A9165), 10 mM nicotinamide (Sigma-Aldrich, cat. N0636), 1X B-27 supplement (Thermo Fisher Scientific, cat. 17504044), 1X N-2 supplement (Thermo Fisher Scientific, cat. 17502048), 50 ng/mL human EGF (Thermo Fisher Scientific, cat. PHG0311), and 10 microM Y-27632 dihydrochloride (Tocris Bioscience, cat. 1254). The K12877-001-R-J1-PDC line was cultured in 6I media, which includes all 6C/Colon 1B media plus 10 ng/mL human FGF-10 (PeproTech, cat. 100-26), 1 ng/mL human FGF-2 (PeproTech, cat. 100-18B), 1 µM prostaglandin E2 (Tocris Bioscience, cat. 2296), […] hydrocortisone (Sigma-Aldrich, cat. H4001), and […] bovine insulin (Sigma-Aldrich, cat. I6634). The K86415-001-R-J1-PDC line was cultured in 6D media, which includes all 6C/Colon 1B media components minus the L-WRN conditioned media. The 485176-168-R4-J1-PDC was cultured in PANC media, which includes all 6C/Colon 1B media plus 100 ng/mL human FGF-10 (PeproTech, cat. 100-26), 500 nM SB-431542 (Selleckchem, cat. S1067), and 10 nM gastrin (Tocris Bioscience, cat. 3006). […]
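Note: spheroids exposed to compounds for 7 days.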
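Throughout, for viability, T/C: 100% = DMSO vehicle control viability.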

CC(C)NCC(C(=O)N1CCN(c2ncnc3c2C(C)CC3O)CC1)c1ccc(Cl)cc1 (configuration not stated) + CCn1c(-c2cc(N3CCN(C)CC3)cnc2C(C)OC)c2c3cc(ccc31)-c1csc(n1)CC(NC(=O)C1CC1C)C(=O)N1CCCC(N1)C(=O)OCC(C)(C)C2
IC50 (second compound 0.000949 µM): < 31.6 nM | IC50 (second compound 0.003 µM): < 31.6 nM | IC50 (second compound 0.00949 µM): < 31.6 nM | IC50 (second compound 0.03 µM): < 31.6 nM | IC50 (second compound 0.0949 µM): < 31.6 nM | IC50 (second compound 0.3 µM): < 31.6 nM | viability, T/C (second compound 0.000949 µM, first compound 0.0316 µM): 29.7% | viability, T/C (second compound 0.000949 µM, first compound 0.1 µM): 25.9% | viability, T/C (second compound 0.000949 µM, first compound 0.316 µM): 20.5% | viability, T/C (second compound 0.000949 µM, first compound 1 µM): 21.1% | viability, T/C (second compound 0.000949 µM, first compound 3.16 µM): 27.7% | viability, T/C (second compound 0.000949 µM, first compound 10 µM): 33.9% | viability, T/C (second compound 0.003 µM, first compound 0.0316 µM): 25.2% | viability, T/C (second compound 0.003 µM, first compound 0.1 µM): 20.6% | viability, T/C (second compound 0.003 µM, first compound 0.316 µM): 17.4% | viability, T/C (second compound 0.003 µM, first compound 1 µM): 13.4% | viability, T/C (second compound 0.003 µM, first compound 3.16 µM): 17.8% | viability, T/C (second compound 0.003 µM, first compound 10 µM): 17.7% | viability, T/C (second compound 0.00949 µM, first compound 0.0316 µM): 20.4% | viability, T/C (second compound 0.00949 µM, first compound 0.1 µM): 15.2% | viability, T/C (second compound 0.00949 µM, first compound 0.316 µM): 14.7% | viability, T/C (second compound 0.00949 µM, first compound 1 µM): 11.6% | viability, T/C (second compound 0.00949 µM, first compound 3.16 µM): 14.1% | viability, T/C (second compound 0.00949 µM, first compound 10 µM): 15.7% | viability, T/C (second compound 0.03 µM, first compound 0.0316 µM): 20.1% | viability, T/C (second compound 0.03 µM, first compound 0.1 µM): 15.8% | viability, T/C (second compound 0.03 µM, first compound 0.316 µM): 14.9% | viability, T/C (second compound 0.03 µM, first compound 1 µM): 11.9% | viability, T/C (second compound 0.03 µM, first compound 3.16 µM): 11.9% | viability, T/C (second compound 0.03 µM, first compound 10 µM): 13.8% | viability, T/C (second compound 0.0949 µM, first compound 0.0316 µM): 16.5% | viability, T/C (second compound 0.0949 µM, first compound 0.1 µM): 17.4% | viability, T/C (second compound 0.0949 µM, first compound 0.316 µM): 13.1% | viability, T/C (second compound 0.0949 µM, first compound 1 µM): 11.7% | viability, T/C (second compound 0.0949 µM, first compound 3.16 µM): 12.4% | viability, T/C (second compound 0.0949 µM, first compound 10 µM): 13.8% | viability, T/C (second compound 0.3 µM, first compound 0.0316 µM): 18.8% | viability, T/C (second compound 0.3 µM, first compound 0.1 µM): 19.6% | viability, T/C (second compound 0.3 µM, first compound 0.316 µM): 14.2% | viability, T/C (second compound 0.3 µM, first compound 1 µM): 11.5% | viability, T/C (second compound 0.3 µM, first compound 3.16 µM): 12.9% | viability, T/C (second compound 0.3 µM, first compound 10 µM): 13.8%
